Measured values published in patent US20150342954A1, “2-BENZYL, 3-(PYRIMIDIN-2-YL) SUBSTITUTED PYRAZOLES USEFUL AS SGC STIMULATORS” (IRONWOOD PHARMACEUTICALS, INC., priority 2011, published 2015).

Legend:
Thoracic aortic rings = experiment: Alternative thoracic aortic rings assay (Example 5; original resting tension as 100% inhibition); details: rat thoracic aortic rings contracted with phenylephrine; for Aortic Ring Percent Relaxation at 1 μM: compound at 1 μM; for Aortic Ring Percent Relaxation at 3 μM: compound at 3 μM; for Aortic Ring Percent Relaxation at 10 μM: compound at 10 μM; for EC50: read-out: Aortic Ring EC50
Protocol: Thoracic aortic rings were dissected from anesthetized (isoflurane) male Sprague-Dawley rats weighing 275-299 g. Tissues were immediately transferred to ice-cold Krebs-Henseleit solution, which had been aerated with 95% 02 and 5% CO2 for 30 minutes. Following removal of connective tissue, aortic sections were cut into 4 rings (˜2 mm each) and suspended on 2 L-shaped hooks, with one hook fixed at the bottom of the tissue bath (Schuler Organ Bath, Harvard Apparatus) and the other connected to a force transducer (F30 Force Transducer, Harvard Apparatus). Baths contained Krebs Henseleit solution (10 mL) heated to 37° C. and aerated with 95% 02 and 5% CO2. Rings were brought to an initial tension of 0.3-0.5 g and gradually raised to a resting tension of 1.0 g over 60 minutes. Rings were rinsed with Krebs Henseleit solution (heated to 37° C. and aerated with 95% 02 and 5% CO2) at 15 minute intervals until a stable baseline was obtained. Rings were considered to be stable after a resting tension of 1.0 g was maintained (for approximately 10 minutes) without need for adjustment. Rings were then contracted with 100 ng/mL phenylephrine by adding 100 μL of a 10 μg/mL phenylephrine stock solution. Tissues achieving a stable contraction were then treated in a cumulative, dose dependent manner with test compounds prepared in dimethylsulfoxide (DMSO). In some cases, tissues were rinsed three times over a 5 minute period with Krebs-Heinseleit's solution (heated to 37° C. and aerated with 95% 02 and 5% CO2), allowed to stabilize at baseline, and then used for characterization of other test articles or DMSO effects. All data were collected using the HSE-ACAD software provided by Harvard Apparatus. […] EC50 values were calculated from concentration-response curves generated with GraphPad Prism Software.
Biological Activity Measurement by the Thoracic Aortic Rings Assay
The biological data for some of a compound of Table I, in comparison with the known compound, BAY 41-2272, as the reference compound, determined by the thoracic aorta ring assay of Example 5 are presented in Table 6 below.

[1] = target: T1, Human soluble guanylate cyclase enzyme (hsGC) (Homo sapiens, UniProt Q02108+Q02153); experiment: Purified human sGC enzyme activity assay (without SNP); assay type: biochemical; details: compound at 30 μM, absence of SNP; fold over DMSO control; Table 5A
T1 construct: purchased Enzo Inc. ALX-201-177
T1 sequence (Q02153 1-619): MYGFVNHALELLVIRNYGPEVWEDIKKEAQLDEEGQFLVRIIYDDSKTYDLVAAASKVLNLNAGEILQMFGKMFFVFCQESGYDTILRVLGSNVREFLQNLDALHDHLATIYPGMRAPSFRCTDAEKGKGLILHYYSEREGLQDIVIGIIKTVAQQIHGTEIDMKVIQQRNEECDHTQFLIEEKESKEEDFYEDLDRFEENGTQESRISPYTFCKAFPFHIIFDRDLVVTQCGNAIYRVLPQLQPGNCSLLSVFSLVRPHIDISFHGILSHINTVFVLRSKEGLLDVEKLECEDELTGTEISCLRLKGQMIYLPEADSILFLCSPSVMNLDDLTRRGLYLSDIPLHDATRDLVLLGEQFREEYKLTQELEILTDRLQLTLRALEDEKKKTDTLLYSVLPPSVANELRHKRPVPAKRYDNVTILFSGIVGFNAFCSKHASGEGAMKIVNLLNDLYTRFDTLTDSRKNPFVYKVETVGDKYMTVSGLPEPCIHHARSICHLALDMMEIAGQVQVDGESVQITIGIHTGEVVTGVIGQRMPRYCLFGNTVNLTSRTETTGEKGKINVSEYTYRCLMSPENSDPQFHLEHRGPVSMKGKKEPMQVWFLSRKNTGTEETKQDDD
T1 sequence (Q02108 1-690): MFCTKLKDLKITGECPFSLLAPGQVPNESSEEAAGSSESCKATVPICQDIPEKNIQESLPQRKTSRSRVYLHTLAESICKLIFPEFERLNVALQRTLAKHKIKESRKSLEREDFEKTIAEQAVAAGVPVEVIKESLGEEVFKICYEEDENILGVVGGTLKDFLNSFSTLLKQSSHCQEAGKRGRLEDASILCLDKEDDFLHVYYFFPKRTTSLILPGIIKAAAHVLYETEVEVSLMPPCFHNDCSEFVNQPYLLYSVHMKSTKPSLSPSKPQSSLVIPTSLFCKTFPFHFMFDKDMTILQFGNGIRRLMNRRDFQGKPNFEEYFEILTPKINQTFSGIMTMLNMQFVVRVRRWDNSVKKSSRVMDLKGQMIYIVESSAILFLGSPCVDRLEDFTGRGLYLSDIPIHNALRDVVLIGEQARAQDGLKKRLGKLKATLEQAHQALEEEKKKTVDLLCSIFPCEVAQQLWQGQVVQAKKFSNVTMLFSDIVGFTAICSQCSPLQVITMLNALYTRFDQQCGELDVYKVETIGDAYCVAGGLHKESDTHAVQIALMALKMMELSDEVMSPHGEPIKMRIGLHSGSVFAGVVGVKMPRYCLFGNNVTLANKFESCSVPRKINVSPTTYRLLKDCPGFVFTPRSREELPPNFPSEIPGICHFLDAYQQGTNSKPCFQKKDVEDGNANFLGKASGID
How it was run: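 Purified human sGC (5 ng) in 0.1 M Tris pH 8.0, 2 mM DTT, 2 mM MgCl2, 300 μM GTP, 1 mM IBMX, with compound at 10 or 30 μM final, 30 min at 37° C.; methanol-stopped. cGMP quantified against a standard curve; specific activity expressed as fold-change over DMSO control.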

Row | Compound | Aortic Ring Percent Relaxation at 1 μM (Thoracic aortic rings) | Aortic Ring Percent Relaxation at 3 μM (Thoracic aortic rings) | Aortic Ring Percent Relaxation at 10 μM (Thoracic aortic rings) | EC50 (Thoracic aortic rings) [nM] | Enzyme Activity (increase at 30 μM without SNP) [1]
1 | Nc1nc(-c2cc(-c3ccon3)n(Cc3ccccc3F)n2)ncc1NC(=O)C1(c2ccccc2)CC1 [Compound 27] | F (80 to <100%) | G (100 to <120%) | G (100 to <120%) | < 2000 | D (10 or <20 fold increase)
2 | Nc1nc(-c2cc(-c3ccon3)n(Cc3ccccc3F)n2)ncc1NC(=O)C1(F)CC1 [Compound 35] | G (100 to <120%) | H (higher than 120%) | H (higher than 120%) | < 2000 | D (10 or <20 fold increase)
3 | Nc1nc(-c2cc(-c3ccon3)n(Cc3cccc(F)c3F)n2)ncc1NC(=O)C1(C(F)(F)F)CC1 [Compound 40] | G (100 to <120%) | G (100 to <120%) | G (100 to <120%) | < 2000 | C (5 to <10 fold increase)
